According to patent US5691307A, “O^6 -substituted guanine compositions and methods for depleting O^6” (The United States of America as represented by the …, priority 1994, dated 1997):
pIC50: −log10 of the molar value. Where two headings read alike, the source gives them in different places.

Tests used:
AGT [1] = experiment: AGT depletion (general statements)
[2] = background; agents under development; cited from earlier work
prostate tumors = details: rats bearing prostate tumors; O^6-benzylguanine one hour prior to BCNU, or BCNU alone at equal dose; cited from earlier work
[3] = molecular target: T1, alkyltransferase (AGT), HT29 cell-free extract (Homo sapiens, UniProt P16455); experiment: biochemical
T1 sequence (P16455 1-207): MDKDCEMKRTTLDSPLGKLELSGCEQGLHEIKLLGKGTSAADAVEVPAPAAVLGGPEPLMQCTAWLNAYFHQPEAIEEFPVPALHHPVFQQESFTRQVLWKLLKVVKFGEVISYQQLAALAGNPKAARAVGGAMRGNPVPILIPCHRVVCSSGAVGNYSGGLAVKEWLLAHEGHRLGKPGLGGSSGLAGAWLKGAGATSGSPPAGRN

[4] = molecular target: T2, alkyltransferase (AGT), HT29 cells (Homo sapiens, UniProt P16455); experiment: AGT depletion/inactivation in intact HT29 cells; format: cell-based
T2 construct: human colon tumor cells HT29 and intact HT29 cells; endogenous in cells; host or cells: HT29 human colon tumor cells, intact
T2 sequence (P16455 1-207): T1 sequence (P16455 1-207)
Protocol: After four hours, cells were harvested and frozen at -80° C. until analysis for AGT.

[5] = Conversion to O^6-benzylguanine / stability in vitro and in cell cultures; format: in vitro ADME
[6] = Stability in alkaline solution (UV at pH 13); format: physicochemical; details: pH 13, UV measurement
Protocol: The reaction mixture was stirred at 0° C. for 30 min at which time the ice bath was removed and the reaction was allowed to proceed overnight at room temperature. At this point, a water-ice mixture (~5 ml) was added to the flask with vigorous stirring for 5 minutes.

AGT [7] = details: cited from earlier work; for AGT depletion (shown previously): literature
tumor cells = details: cited from earlier work
pancreatic beta cells = details: cited from earlier work
pancreatic tumors = details: background; cited from earlier work
[8] = test system: malignant melanomas, brain tumors and mycosis fungoides; details: background; cited from earlier work
[9] = test system: active melanin producing cells such as melanoma cells; details: cited from earlier work
[10] = HT29 cell-free extract, 30 min incubation, 50% inactivation (Table 2), read-out: ED50 In cell-free extract
[11] = HT29 cells, 4 h incubation, 50% inactivation (Table 2), read-out: ED50 In cells

Nc1nc(OCc2ccccc2)c2ncn(CC(=O)[O-])c2n1.[Na+]
AGT depletion characteristics (AGT [1]): exhibit AGT depletion characteristics

O=NN(CCCl)C(=O)NCCO [1-(2-chloroethyl)-3-(2-hydroxyethyl)-1-nitrosourea]
side effects [2]: fewer side effects

O=NN(CCCl)C(=O)NCCCl [BCNU, 1,3-bis(2-chloroethyl)-1-nitrosourea]
regression in tumor growth (prostate tumors): not observed

CS(=O)(=O)CS(=O)(=O)OCCCl [Clomesone, 2-chloroethylmethylsulfonylmethanesulfonate]
side effects [2]: fewer side effects

CCOC(=O)Cn1cnc2c(OCc3ccccc3)nc(N)nc21 [Example 3b, 2-Amino-6-benzyloxy-9-carboethoxymethylpurine]
pIC50 [3, 10]: 4.52
pIC50 [4, 11]: 5.52
AGT depletion characteristics (AGT [1]): exhibit AGT depletion characteristics

NC(=O)Cn1cnc2c(OCc3ccccc3)nc(N)nc21 [Example 4b, 2-Amino-6-benzyloxy-9-carbamoylmethylpurine]
AGT depletion characteristics (AGT [1]): exhibit AGT depletion characteristics

CCC(O)Cn1cnc2c(OCc3ccccc3)nc(N)nc21 (stereo not shown) [Example 5b, 2-Amino-6-benzyloxy-9-(2-hydroxybutyl)purine]
AGT depletion characteristics (AGT [1]): exhibit AGT depletion characteristics

N#CCn1cnc2c(OCc3ccccc3)nc(N)nc21 [Example 6b, 2-Amino-6-benzyloxy-9-cyanomethylpurine]
AGT depletion characteristics (AGT [1]): exhibit AGT depletion characteristics

CC(C)(C)C(=O)OCn1cnc2c(OCc3ccccc3)nc(N)nc21 [Example 7, 2-Amino-6-benzyloxy-9-pivaloyloxymethylpurine]
conversion by esterases in cell cultures ([5]; cell cultures): Converted to O^6benzylguanine by esterases in cell cultures
stability in vitro ([5]; in vitro): stable in vitro

CC(=O)OC[C@H]1OC(OC(C)=O)[C@H](NC(=O)Cn2cnc3c(OCc4ccccc4)nc(N)nc32)[C@@H](OC(C)=O)[C@@H]1OC(C)=O (stereo partly drawn) [Example 8, 2-Amino-6-benzyloxy-9-{N-[2-deoxy-2-(1,3,4,6-tetra-O-acetyl)-D-glucopyranosyl]carbamoylmethyl}purine]
AGT depletion characteristics (AGT [1]): exhibit AGT depletion characteristics

CC(=O)n1cnc2c(OCc3ccccc3)nc(N)nc21 [Example 13, 9-Acetyl-O^6-benzylguanine]
decomposition at pH 13 [6]: decomposes to O^6 -benzylguanine
conversion by hydrolysis ([5]; in vitro and in cultures): Converted to O^6benzylguanine by hydrolysis

C[C@]12CC[C@H]3[C@@H](CCC4=CC(=O)CC[C@@]43C)[C@@H]1CC[C@@H]2OC(=O)Cn1cnc2c(OCc3ccccc3)nc(N)nc21 [Example 20, O^6 -Benzyl-9-(4-androsten-3-one-17β-oxycarbonylmethyl) guanine]
pIC50 [3]: 5.30
pIC50 [4]: 6.30

C[C@]12CCC(=O)C[C@@H]1CC[C@@H]1[C@@H]2CC[C@]2(C)[C@@H](OC(=O)Cn3cnc4c(OCc5ccccc5)nc(N)nc43)CC[C@@H]12 [Example 22, O^6 -Benzyl-9-(5α-androstan-3-one-17β-oxycarbonylmethyl) guanine]
pIC50 [3]: 5.40
pIC50 [4]: 6.30

CCOP(=O)(OCC)C(C)NC(=O)N(CCCl)N=O (stereo not shown) [Fotemustine, 1-[N-(2-chloroethyl)-N-nitrosoureido]ethylphosphonic acid diethyl ester]
side effects [2]: fewer side effects

Nc1nc(OCc2ccc(Cl)cc2)c2nc[nH]c2n1 [O^6 -(p-chlorobenzyl)guanine, O^6 -(p-chlorobenzyl) guanine]
pIC50 [3, 10]: 6.70
pIC50 [4, 11]: 7.10
potency as AGT depleter (AGT [7]): more potent
AGT depletion (shown previously) (AGT [7]): effective in depleting AGT
enhancement in the cytotoxic response to alkylating agents (tumor cells): enhancement in the cytotoxic response to chemotherapeutic alkylating agents

Nc1nc(OCc2ccc(Cl)cc2)c2ncn([C@@H]3O[C@H](CO)[C@@H](O)[C@H]3O)c2n1 [O^6 -(p-chlorobenzyl)guanosine]
pIC50 [3, 10]: 5.00
pIC50 [4, 11]: 5.30
AGT depletion (shown previously) (AGT [7]): effective in depleting AGT

Nc1nc(OCc2ccc(F)cc2)c2nc[nH]c2n1 [O^6 -(p-fluorobenzyl)guanine, O^6 -(p-fluorobenzyl) guanine]
pIC50 [3, 10]: 6.70
AGT depletion (shown previously) (AGT [7]): effective in depleting AGT

Cc1ccc(COc2nc(N)nc3nc[nH]c23)cc1 [O^6 -(p-methylbenzyl)guanine]
pIC50 [3, 10]: 6.70
pIC50 [4, 11]: 7.10
potency as AGT depleter (AGT [7]): more potent
AGT depletion (shown previously) (AGT [7]): effective in depleting AGT
enhancement in the cytotoxic response to alkylating agents (tumor cells): enhancement in the cytotoxic response to chemotherapeutic alkylating agents

Cc1ccc(COc2nc(N)nc3c2ncn3[C@@H]2O[C@H](CO)[C@@H](O)[C@H]2O)cc1 [O^6 -(p-methylbenzyl)guanosine, O^6 - (p-methylbenzyl)guanosine]
pIC50 [3, 10]: 5.05
pIC50 [4, 11]: 5.52
AGT depletion (shown previously) (AGT [7]): effective in depleting AGT

C=CCOc1nc(N)nc2nc[nH]c12 [O^6 -allylguanine, O^6 -Allylguanine]
pIC50 [3]: 4.70
pIC50 [4]: 5.40

Nc1nc(OCc2ccccc2)c2ncn([C@@H]3O[C@H](CO)[C@@H](O)[C@H]3O)c2n1 [O^6 -benzylguanosine]
pIC50 [3, 10]: 4.96
pIC50 [4, 11]: 5.70
AGT depletion (shown previously) (AGT [7]): effective in depleting AGT

COc1nc(N)nc2nc[nH]c12 [O^6 -methylguanine]
pIC50 [3, 10]: 3.46
pIC50 [4, 11]: 3.92
potency as AGT depleter (AGT [7]): weak
enhancement in the cytotoxic response to alkylating agents (tumor cells): enhancement in the cytotoxic response to chemotherapeutic alkylating agents

Nc1nc(OCc2ccccc2)c2ncn([C@H]3C[C@H](O)[C@@H](CO)O3)c2n1 [O^6-benzyl-2'-deoxyguanosine]
pIC50 [3, 10]: 5.70
pIC50 [4, 11]: 6.30
AGT depletion (shown previously) (AGT [7]): effective in depleting AGT

CN(N=O)C(=O)N[C@H]1C(O)O[C@H](CO)[C@@H](O)[C@@H]1O (stereo partly drawn) [Streptozotocin, 2-deoxy-2-(3-methyl-3-nitrosoureido)-D-glucopyranose]
selective destruction of pancreatic beta cells (pancreatic beta cells): selectively destructive to pancreatic beta cells
effectiveness against pancreatic tumors (pancreatic tumors): effective

Cn1nnc2c(C(N)=O)ncn2c1=O [Temozolomide, 8-carbamoyl-3-methylimidazo[5,1-d]-1,2,3,5-tetrazin-4-(3H)-one]
activity against malignant melanomas, brain tumors and mycosis fungoides [8]: active

O=c1cc[nH]c(=S)[nH]1 [Thiouracil]
accumulation in active melanin producing cells [9]: accumulates readily in active melanin producing cells such as melanoma cells

Nc1nc(OCc2ccccc2)c2ncn(CC(=O)[O-])c2n1.[Na+] [sodium salt]
pIC50 [3, 10]: 3.80
